Test results: ChEMBL document CHEMBL1127914, “Pseudopeptide inhibitors of aminopeptidases containing the [CH(CN)NH] surrogate as a transition-state MIMIC” (Bioorg Med Chem Lett, 1994)
pIC50: −log10 of the molar value. One block for each compound: values may come before it. Residues, ends and D or L forms follow the SMILES beside them.

What was measured:
Aminopeptidase B [1] = molecular target: T1, Aminopeptidase B (Mus musculus, UniProt Q8VCT3); assay: Inhibition of Aminopeptidase B in murine L-cells by Aoyagi method.
T1 sequence (Q8VCT3 whole entry): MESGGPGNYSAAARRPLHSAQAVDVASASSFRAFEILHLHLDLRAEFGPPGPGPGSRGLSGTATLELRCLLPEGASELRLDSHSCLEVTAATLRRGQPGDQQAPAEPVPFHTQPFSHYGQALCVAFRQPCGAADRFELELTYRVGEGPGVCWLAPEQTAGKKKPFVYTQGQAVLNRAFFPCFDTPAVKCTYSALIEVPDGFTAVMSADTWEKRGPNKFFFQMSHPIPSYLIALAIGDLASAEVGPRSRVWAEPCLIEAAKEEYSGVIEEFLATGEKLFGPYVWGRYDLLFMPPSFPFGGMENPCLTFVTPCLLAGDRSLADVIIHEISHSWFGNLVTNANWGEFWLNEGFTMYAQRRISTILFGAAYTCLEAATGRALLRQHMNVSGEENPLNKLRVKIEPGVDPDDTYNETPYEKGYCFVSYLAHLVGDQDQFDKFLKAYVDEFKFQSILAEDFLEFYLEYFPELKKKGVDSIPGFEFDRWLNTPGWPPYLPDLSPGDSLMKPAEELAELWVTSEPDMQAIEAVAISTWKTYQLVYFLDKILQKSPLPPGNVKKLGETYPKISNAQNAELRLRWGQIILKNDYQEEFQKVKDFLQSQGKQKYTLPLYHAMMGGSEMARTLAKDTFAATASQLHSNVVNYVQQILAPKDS

Aminopeptidase N [2] = molecular target: T2, Aminopeptidase N (Homo sapiens, UniProt P15144); assay: Inhibition of Aminopeptidase M.
T2 sequence (P15144 whole entry): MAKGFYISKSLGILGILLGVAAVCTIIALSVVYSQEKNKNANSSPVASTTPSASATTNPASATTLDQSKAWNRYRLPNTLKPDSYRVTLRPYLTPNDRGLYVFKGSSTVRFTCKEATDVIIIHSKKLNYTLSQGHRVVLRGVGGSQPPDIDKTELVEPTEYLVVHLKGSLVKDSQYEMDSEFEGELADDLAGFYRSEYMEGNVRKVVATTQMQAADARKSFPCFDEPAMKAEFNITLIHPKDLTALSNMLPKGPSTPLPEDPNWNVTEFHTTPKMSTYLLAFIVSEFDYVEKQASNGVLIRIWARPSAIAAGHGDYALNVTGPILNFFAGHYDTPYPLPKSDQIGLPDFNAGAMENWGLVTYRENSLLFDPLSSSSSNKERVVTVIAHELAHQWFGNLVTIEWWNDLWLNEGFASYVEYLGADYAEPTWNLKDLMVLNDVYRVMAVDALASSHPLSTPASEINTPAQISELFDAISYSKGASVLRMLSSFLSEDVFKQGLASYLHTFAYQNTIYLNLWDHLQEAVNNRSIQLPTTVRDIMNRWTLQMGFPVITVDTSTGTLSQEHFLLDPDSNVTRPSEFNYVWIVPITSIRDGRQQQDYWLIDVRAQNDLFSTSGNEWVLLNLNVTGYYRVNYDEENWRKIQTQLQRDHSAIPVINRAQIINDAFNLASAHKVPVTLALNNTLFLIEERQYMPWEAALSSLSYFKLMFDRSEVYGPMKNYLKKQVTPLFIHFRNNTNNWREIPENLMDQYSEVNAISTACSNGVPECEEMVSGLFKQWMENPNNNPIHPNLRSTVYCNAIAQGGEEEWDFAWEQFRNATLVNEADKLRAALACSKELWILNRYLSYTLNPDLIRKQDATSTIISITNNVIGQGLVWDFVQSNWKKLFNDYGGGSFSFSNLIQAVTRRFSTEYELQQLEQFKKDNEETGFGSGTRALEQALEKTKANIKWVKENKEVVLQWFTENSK

Aminopeptidase B [3] = molecular target: T1, Aminopeptidase B; assay: Concentration required for inhibitory potency against Aminopeptidase B in murine L-cells by aoyagi method using L-lysine-2-naphthylamide hydrochloride as substrate (0.5mM, Km=0.9*10e-4 M)
Aminopeptidase N [4] = molecular target: T2, Aminopeptidase N; assay: Concentration required for inhibitory potency on Aminopeptidase M using L-leucine-2-naphthylamide hydrochloride as substrate(0.5 mM, Km=0.6*10e-4 M)

Structure (SMILES): COC(=O)[C@H](CCCCN)NC(C#N)[C@H](Cc1ccccc1)NC(=O)OC(C)(C)C (mixture of isomers)
pIC50 (Aminopeptidase B [1]): 3.00
pIC50 (Aminopeptidase N [2]): 3.00

Structure (SMILES): COC(=O)[C@H](Cc1ccccc1)NC(C#N)[C@H](Cc1ccccc1)NC(=O)OC(C)(C)C (single isomer, unassigned; form 2)
pIC50 (Aminopeptidase B [1]): 3.00
pIC50 (Aminopeptidase N [2]): 3.00

Structure (SMILES): COC(=O)C1CCCN1C(=O)[C@H](CC(C)C)NC(C(N)=O)[C@@H](N)Cc1ccccc1 (single isomer, unassigned) [listing 1 of 2 here]
pIC50 (Aminopeptidase B [3]): 3.00
pIC50 (Aminopeptidase N [4]): 3.11

Structure (SMILES): CC(C)C[C@H](NC(=O)[C@@H](N)Cc1ccccc1)C(=O)O (H-Phe-Leu-OH)
pIC50 (Aminopeptidase B [1]): 3.00
pIC50 (Aminopeptidase N [2]): 3.00

Structure (SMILES): COC(=O)C1CCCN1C(=O)[C@H](CC(C)C)NC(C#N)[C@H](Cc1ccccc1)NC(=O)OC(C)(C)C (single isomer, unassigned; form 1)
pIC50 (Aminopeptidase B [1]): 3.00
pIC50 (Aminopeptidase N [2]): 3.00

Structure (SMILES): COC(=O)C1CCCN1C(=O)[C@H](CC(C)C)NC(C#N)[C@H](Cc1ccccc1)NC(=O)OC(C)(C)C (single isomer, unassigned; form 2)
pIC50 (Aminopeptidase B [1]): 3.00
pIC50 (Aminopeptidase N [2]): 3.00

Structure (SMILES): COC(=O)[C@@H]1CCCN1C(=O)[C@H](CC(C)C)NC(=O)[C@@H](N)Cc1ccccc1 (H-Phe-Leu-Pro-OMe)
pIC50 (Aminopeptidase B [1]): 3.08
pIC50 (Aminopeptidase N [2]): 3.10

Structure (SMILES): COC(=O)[C@H](Cc1ccccc1)NC(C#N)[C@H](Cc1ccccc1)NC(=O)OC(C)(C)C (single isomer, unassigned; form 1)
pIC50 (Aminopeptidase B [1]): 3.00
pIC50 (Aminopeptidase N [2]): 3.00

The next lines start with the values.

pIC50 (Aminopeptidase B [1]): 3.53
Structure (SMILES): COC(=O)[C@H](Cc1ccccc1)N[C@H](C#N)[C@@H](N)Cc1ccccc1

pIC50 (Aminopeptidase B [1]): 4.30
Structure (SMILES): COC(=O)[C@H](CC(C)C)NC(C#N)[C@@H](N)Cc1ccccc1 (some centres not stated)

pIC50 (Aminopeptidase B [1]): 3.00
pIC50 (Aminopeptidase N [2]): 3.00
Structure (SMILES): COC(=O)[C@H](CC(C)C)NC(C#N)[C@H](Cc1ccccc1)NC(=O)OC(C)(C)C (mixture of isomers)

pIC50 (Aminopeptidase B [1]): 4.36
Structure (SMILES): COC(=O)[C@H](CCCCN)NC(C#N)[C@@H](N)Cc1ccccc1 (some centres not stated)

pIC50 (Aminopeptidase B [1]): 5.22
Structure (SMILES): CC(C)C[C@H](NC(=O)[C@@H](O)[C@H](N)Cc1ccccc1)C(=O)O [UBENIMEX]

pIC50 (Aminopeptidase B [1]): 4.44
Structure (SMILES): COC(=O)[C@@H](NC(C#N)[C@@H](N)Cc1ccccc1)C(C)C (some centres not stated)

pIC50 (Aminopeptidase B [1]): 4.85
Structure (SMILES): COC(=O)C1CCCN1C(=O)[C@H](CC(C)C)NC(C#N)[C@@H](N)Cc1ccccc1 (single isomer, unassigned)

pIC50 (Aminopeptidase B [1]): 3.00
pIC50 (Aminopeptidase N [2]): 3.00
Structure (SMILES): COC(=O)[C@@H](NC(C#N)[C@H](Cc1ccccc1)NC(=O)OC(C)(C)C)C(C)C (some centres not stated)

pIC50 (Aminopeptidase B [1]): 4.55
Structure (SMILES): COC(=O)[C@@H]1CCCN1C(=O)[C@H](CC(C)C)N[C@@H](C#N)[C@@H](N)Cc1ccccc1

pIC50 (Aminopeptidase B [1]): 3.00
pIC50 (Aminopeptidase N [2]): 3.00
Structure (SMILES): COC(=O)[C@H](CC(C)C)NC(C(N)=O)[C@@H](N)Cc1ccccc1 (single isomer, unassigned)

pIC50 (Aminopeptidase B [1]): 3.66
Structure (SMILES): COC(=O)[C@H](Cc1ccccc1)N[C@@H](C#N)[C@@H](N)Cc1ccccc1

pIC50 (Aminopeptidase B [1]): 3.00
pIC50 (Aminopeptidase N [2]): 3.00
Structure (SMILES): COC(=O)C1CCCN1C(=O)[C@H](CC(C)C)NC(C(N)=O)[C@@H](N)Cc1ccccc1 (single isomer, unassigned) [listing 2 of 2 here]
